This is an account of results in PubChem BioAssay (NCI).

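Protocol summary: plate cells (96-well), add compound at 5 concentrations, incubate 48 h, interpolate endpoints linearly. TGI denotes the concentration required for complete inhibition of growth.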 Where only a bound is given, the exact number is not on record here.

Holding throughout (test): inhibition of tumour cell growth, NCI panel, 48 h
Assay [1] concerns CCRF-CEM leukemia.
In assay [2] the test system is HCT-116 colon.
Assay [3] relates to HOP-62 NSCLC.
In assay [4] the test system is MALME-3M melanoma.
For assay [5], the system named is MDA-MB-231 breast.
Assay [6] relates to NCI-H460 lung.
Assay [7] relates to SF-539 CNS.
The test system of assay [8] is SK-MEL-2 melanoma.
In assay [9] the test system is SK-OV-3 ovarian.
Assay [10] relates to SW-620 colon.
Assay [11] deals with UACC-257 melanoma.
In assay [12] the test system is NCI-H226 lung.

In the case of `CC(C)(O)C1CC[C@]2(C)[C@H]3CC[C@@H]4[C@@]5(C)CCCC(C)(C)[C@@H]5CC[C@@]4(C)[C@]3(C)CC[C@@H]12` (stereo partly specified), the TGI in [1], in assay [2], in [3], in [4], in assay [5] and in [6] was over 100 µM throughout. Also, the TGI in assay [7], in [8], in assay [9], in [10] and in assay [11] was over 100 µM in each case.

Regarding `Cc1c(OCc2ccccc2)c(=O)ccn1CCc1c[nH]c2ccccc12`, the TGI in assay [1] was over 100 µM; in assay [2] it was over 100 µM; in assay [3], over 100 µM; in assay [4] it was 88.3 µM; in [5] it was over 100 µM; in assay [6] it was over 100 µM. Besides, the TGI was over 100 µM in assay [7]; 48.2 µM in assay [8]; over 100 µM in [9]; over 100 µM in assay [10]; over 100 µM in assay [11].

`COc1ccc2nc3c(c(NCCCN(C)C)c2c1)CCCC3`: the TGI in [1] turned out to be 28.3 µM; in assay [2], 17.2 µM; in assay [3], 30.9 µM; in assay [4], 33.9 µM; in assay [12], 30.7 µM; in assay [6] it was 24.3 µM. Further, the TGI in assay [7] came to 30.8 µM; in assay [8], 37.1 µM; in assay [9], 58.4 µM; in assay [10], 51.5 µM; in assay [11] it was 31.3 µM.

Consider `O=c1c2ccccc2nc(-c2ccccc2)n1NC(=S)Nc1ccc(Cl)cc1`, for which the TGI in assay [1], in assay [2], in [3], in assay [4], in assay [12] and in [6] was over 100 µM throughout. The TGI in [7], in assay [8], in assay [9], in [10] and in [11] was over 100 µM throughout.

For the compound `CN(C)CCNC(=O)c1cccc2cc3cc(O)ccc3nc12`, the TGI in assay [1] was found to be 5.44 µM; in assay [2], 5.73 µM; in assay [3] it was 2.94 µM; in assay [4], 2.54 µM; in assay [12], 2.48 µM; in assay [6], 2.16 µM. For the same compound, the TGI in [7] is 4.23 µM; in assay [8], 3.81 µM; in assay [9], 4.27 µM; in assay [10] it was 3.46 µM; in [11], 2.94 µM.

As for `O=Nn1c2ccccc2c2cc([N+](=O)[O-])ccc21`, the TGI in assay [1] is 44.5 µM; in assay [2], 32.5 µM; in [3], 25.7 µM; in assay [4], 38.5 µM; in [5] it was 39.9 µM; in assay [6], 54.2 µM. Besides, the TGI in assay [7] stood at 37.2 µM; in assay [8] it was 96.8 µM; in [9], 30.1 µM; in assay [10], 59.7 µM; in [11], 56.5 µM.

For the compound `Cc1ccc(N(O)C(C)(C)C)cc1`, the TGI in assay [1], in assay [2], in assay [3], in assay [4], in assay [12] and in assay [6] was over 100 µM throughout. The TGI in assay [7], in assay [8], in assay [9], in assay [10] and in [11] was over 100 µM in each case.

As for `CN(C)c1ccc(/C=C/C(=O)N[C@@H]2C(=O)N3[C@@H]2SC(C)(C)[C@@H]3C(=O)O)cc1`, the TGI in assay [1], in [2], in [3], in assay [5], in [12] and in assay [6] was over 100 µM in each case. In addition, the TGI in assay [7], in assay [8], in assay [10] and in [11] was over 100 µM in each case.

As to `Cc1cc(C)nc(/C(=N\NC(N)=O)C(=O)Nc2nc3ccc(C)cc3s2)c1`, the TGI is over 77.8 µM in assay [1]; over 100 µM in assay [2]; over 100 µM in [3]; over 100 µM in assay [4]; over 100 µM in [12]; over 100 µM in [6]. The TGI in assay [7], in assay [8], in assay [9], in assay [10] and in assay [11] was over 100 µM in each case.

As to `C[S+](C)CC1OC(n2cnc3c(N)ncnc32)C(O)C1O` (stereo unspecified), the TGI in [1], in [2], in [3], in [4], in [12] and in assay [6] was over 225 µM throughout. Also, the TGI in assay [7], in assay [8], in [9], in assay [10] and in assay [11] was over 225 µM in each case.

As for `CCC(COC(=O)CC[C@@H](NC(=O)C(C)NC(=O)C(C)OC1C(O)C(CO)OC(OCc2ccccc2)C1NC(C)=O)C(N)=O)NC1c2ccccc2Nc2cccc([N+](=O)[O-])c21` (stereo partly specified), the TGI in [1], in assay [2], in [3], in assay [4], in [12] and in assay [6] was over 100 µM in each case. Moreover, the TGI in assay [7], in assay [8], in assay [9], in assay [10] and in assay [11] was over 100 µM throughout.

As for `COc1cccc(/C(Cl)=C(\C=O)c2cccc(OC)c2)c1`, the TGI in [1] is 28.8 µM; in [2] it was 15 µM; in assay [3], 30.1 µM; in assay [4], 12.8 µM; in assay [12] it was 24.8 µM; in assay [6], 26.4 µM. Also, the TGI came to 37.1 µM in assay [7]; 32.7 µM in [8]; 41.7 µM in assay [9]; 19.5 µM in [10]; 42.4 µM in assay [11].
